For orientation: pIC50 means the IC50 on a negative log10 scale, so that one unit is a factor of ten.

The values below come from patent US12303521B2, “Methods for treating liver cancers using an orally administered dioxolane nucleotide in combination with an anti-PD1 or anti-PDL1 monoclonal antibody” (MEDIVIR AB, priority 2019, dated 2025).

Data set [1] concerns vascular or stromal models of HT-29 and peripheral blood mononuclear cells (PBMCs). The experiment in a line: BioMAP Oncology CRC panel, system not specified (tumour immune microenvironment model). The conditions noted are these: 4 concentrations, 48-hrs, vs vehicle control. The format is cell-based, human. From the text:
(§1) To recapitulate the complex signaling networks that manifest in the multi-component TME, the BioMAP Oncology systems co-culture human primary immune cells with primary tissue cells in the presence of a specific cancer cell line. These co-cultures are stimulated with submitogenic levels of T cell receptor (TCR) ligands to prime, but not maximally activate T cells and model immune cells recruited to the intra-tumoural microenvironment.
There are two BioMAP Oncology panels that model the interactions between the immune-stromal (fibroblasts) and immune-vascular (endothelial cells) environments in the context of colon cancer (HT-29 CRC cell line), or in the context of non-small lung cancer (NCI-H1299 NSCLC cell line). The interactions between tumour cells, stimulated immune cells (peripheral blood mononuclear cells (PBMC)), and the host stromal network (human neonatal dermal fibroblasts (HDFn)) is captured in the Stro Oncology systems. In parallel, the Vasc systems capture the interactions between tumour cells, activated immune cells and the vascular tissue (human umbilical vein endothelial cells (HUVEC). The biomarkers selected for the Oncology panels inform on activities related to inflammation, immune-function, tissue remodeling and metastasis in the context of a host tumour-microenvironment. Collectively, the Oncology CRC panel and the Oncology NSCLC panel.
Human primary cells in BioMAP systems are used at early passage (passage 4 or earlier) to minimize adaptation to cell culture conditions and preserve physiological signaling responses. All primary cells are pooled from multiple donors (n=3-6), commercially purchased and handled according to the recommendations of the manufacturers. The HT-29 CRC cell line and the NCI-H1299 NSCLC cell line are purchased from American Type Culture Collection (ATCC). Abbreviations are used as follows: human umbilical vein endothelial cells (HUVEC), peripheral blood mononuclear cells (PBMC), human neonatal dermal fibroblasts (HDFn) and T cell receptor (TCR). Systems in both the Oncology CRC and NSCLC panels are stimulated by sub-mitogenic levels of super antigens (SAg) acting via the TCR to recapitulate the recruitment of immune cells to the tumour environment in situ. These stimulation conditions are optimized to activate or prime T cells, but not drive T cell proliferation.
Cell types used in each of the CRC systems are as follows: StroHT29 system [HT-29 colorectal adenocarcinoma cell line+HDFn+PBMC] and VascHT29 system [HT-29 colorectal adenocarcinoma cell line+HUVEC+PBMC].
Adherent cell types are cultured in 96-well plates until confluent, followed by the addition of PBMC. Test agents prepared in either DMSO (small molecules; final concentration ≤0.1%) or PBS (biologics) are added at the specified concentrations 1-hr before stimulation, and remain in culture for 48-hrs. Each plate contains drug controls (e.g., legacy control test agent colchicine), negative controls (e.g., non-stimulated condition) and vehicle controls (e.g., 0.1% DMSO). Direct ELISA is used to measure biomarker levels of cell-associated and cell membrane targets. Soluble factors from supernatants are quantified using either HTRF® detection, bead-based multiplex immunoassay or capture ELISA. Effects of test agents on cell viability (cytotoxicity) are measured by sulforhodamine B (SRB) for adherent cells (48-hrs), and by alamarBlue® reduction for cells in suspension (42-hrs) at the time points indicated. All test agents are tested in standardized formats at 4 concentrations, in triplicate. Colchicine stimulated wells, vehicle control treated wells, and wells without stimulation are included as controls on each plate (n=3-8). Data acceptance criteria are based on plate performance (% CV of controls), and the performance of positive controls across assays with a comparison to historical controls. […]

Data set [2] relates to HT-29 colorectal adenocarcinoma cell line+HDFn+PBMC. Kind of data set: BioMAP StroHT29 system. It counts as cell-based, human. The conditions noted are these: stromal IL-6, FIG. 14.
Source text: as §1
There are two BioMAP Oncology panels that model the interactions between the immune-stromal (fibroblasts) and immune-vascular (endothelial cells) environments in the context of colon cancer (HT-29 CRC cell line), or in the context of non-small lung cancer (NCI-H1299 NSCLC cell line). The interactions between tumour cells, stimulated immune cells (peripheral blood mononuclear cells (PBMC)), and the host stromal network (human neonatal dermal fibroblasts (HDFn)) is captured in the Stro Oncology systems. […]
Adherent cell types are cultured in 96-well plates until confluent, followed by the addition of PBMC. […] Soluble factors from supernatants are quantified using either HTRF® detection, bead-based multiplex immunoassay or capture ELISA. Effects of test agents on cell viability (cytotoxicity) are measured by sulforhodamine B (SRB) for adherent cells (48-hrs), and by alamarBlue® reduction for cells in suspension (42-hrs) at the time points indicated. […]

A further data set relates to HT-29. Kind of data set: Sensitivity of HT-29 cells to MIV-818 alone (IC50). The format is cell-based. As to conditions: Homo sapiens; HT-29, MIV-818 alone.
A further data set relates to Human PBMC. Kind of data set: IL-2 expression in SEB-stimulated PBMC cultures. The format is cell-based. As to conditions: five days, Luminex.
The next data set concerns HepG2. Kind of data set: IC50 in representative HCC cell line HepG2. It counts as cell-based. The conditions noted are these: Homo sapiens.
A further data set relates to SK-OV-3 tumour cells. Kind of data set: PBMC-mediated tumour cell killing. The format is cell-based, human. As to conditions: anti-CD3 stimulated PBMC co-culture, 68 hrs, 5000 nM MIV-818. On the procedure: Whole blood from three healthy donors was used. PBMC were isolated over a density gradient and counted before adding to NucLight Red labelled tumour targets at a defined E:T ratio in the presence of anti-CD3 stimulation. Tumour cell—PBMC co-cultures were incubated with test compounds at eight concentrations. Appropriate controls were included: PBMC alone, tumour cells alone, tumour cells/PBMC in the presence of a reference compound at a single concentration. All test conditions were also plated onto tumour cells in the absence of stimulated PBMC in order to detect direct compound-associated tumour cytotoxicity. Tumour killing was evaluated by counting viable NucLight positive tumour cells over time. In addition, a Caspase 3/7 dye was used to identify apoptotic tumour cells. Cultures were analysed using an IncuCyte ZOOM machine which allows real-time quantitative live cell fluorescent imaging. Co-cultures were imaged over 68 hrs. Each culture condition was established in triplicate. Cell culture supernatants were stored for optional cytokine analysis.
PBMC were isolated from 3 healthy donors and added to co-cultures with anti-CD3 stimulation and NucLight Red labelled SK-OV-3 tumour cells. […] SK-OV-3 apoptotic cell death was monitored in the co-culture system by imaging for 68 hours using the IncuCyte Zoom software.

A short description of data set [3]: Stability in human plasma. It counts as in vitro ADME.
Data set [4] can be described thus: Stability in rodent blood / plasma. It counts as in vitro ADME.
The conditions of data set [5]: pulmonary metastatic liver cancer, Wu et al 2017; cited from earlier work.

pIC50: −log10 of the molar value. “Also recorded” adds a separate entry of the source.

Turning to `CCC[C@H](C)OC(=O)[C@H](C)NP(=O)(OC[C@H]1OC[C@@H](n2ccc(N)nc2=O)O1)Oc1ccc(Br)cc1` (stereo in doubt) [MIV-818], in [1], the “Collagen III” value was “decreased”, the IP-10 entry was “decreased”, the VCAM-1 entry is “decreased” and the sIFNγ entry was “increased”. In data set [1], the sIL-6 entry is “decreased”, the sIL-17A entry is “increased” and the uPAR entry is “Decreased”. In addition, in [2], the “sIL-6 in the stromal HT-29 system” value is reported as “inhibits”. The compound further had a pIC50 with HT-29 of around 7.70. The IL-2 expression result with Human PBMC was “induced”. The pIC50 with HepG2 is around 7.70. The “PBMC-mediated tumour cell killing (apoptotic SK-OV-3 counts)” value with SK-OV-3 tumour cells is “enhance”. The “stability in human plasma” value in data set [3] is reported as “stable”. The “metabolism in rodent blood” value in data set [4] (rodent blood) is reported as “very quickly metabolized”. Moreover, in data set [4] (rodent plasma), the “stability in rodent plasma” value is “extremely unstable”.

For the compound “pembrolizumab: humanized monoclonal IgG4 antibody directed against human cell surface receptor PD-1”, the adverse event reported result in data set [5] is on record as “liver failure”. The “sIL-6 in the stromal HT-29 system” value in data set [2] is on record as “increase; also recorded: modest enhancement”.
